Key:
MurC = target: T1, MurC (Escherichia coli, UniProt P17952); test: ligase reaction, product UDP-MurNAc-Gly by mass spectrometry; type: biochemical; settings: 18 mM Gly, 1 mM UDP-MurNAc, 5 mM ATP, 20 uM MurC, 24 h; low yield
T1 construct: C-terminal 6xHis tag (pET21a), expressed in E. coli BL21(DE3)

YfiH (PgeF) [1] = target: T2, YfiH (PgeF) (Escherichia coli, UniProt P33644, C107A); test: X-ray crystal structure, […] A; type: binding; settings: endogenous ligand copurified from E. coli; pH 5.4; active-site groove
T2 construct: full length, C-terminal 6xHis tag (pET21a), expressed in E. coli BL21(DE3); Met1 not seen in crystal

MurD = target: T3, MurD (Escherichia coli, UniProt P14900); test: ligase reaction, product by HPLC and ESI-MS; type: biochemical; settings: 2 mM D-glutamate, 5 mM ATP, 10 mM MgCl2, pH 8.0, 37 C; preparative synthesis with MurC and MurD
T3 construct: C-terminal 6xHis tag (pET21a), expressed in E. coli BL21(DE3)
T3 sequence (P14900 2-438): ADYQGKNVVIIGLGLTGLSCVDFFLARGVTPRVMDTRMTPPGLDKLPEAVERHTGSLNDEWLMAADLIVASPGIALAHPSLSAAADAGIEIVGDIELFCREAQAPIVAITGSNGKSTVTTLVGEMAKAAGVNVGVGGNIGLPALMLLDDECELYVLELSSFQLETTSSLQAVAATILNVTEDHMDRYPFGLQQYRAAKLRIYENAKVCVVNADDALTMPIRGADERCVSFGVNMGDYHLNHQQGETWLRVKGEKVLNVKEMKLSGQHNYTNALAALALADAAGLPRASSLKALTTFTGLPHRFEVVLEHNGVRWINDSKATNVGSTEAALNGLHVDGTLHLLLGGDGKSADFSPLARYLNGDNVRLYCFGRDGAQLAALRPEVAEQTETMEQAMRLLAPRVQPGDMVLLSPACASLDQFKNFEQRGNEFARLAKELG

YfiH (PgeF) [2] = target: T2, YfiH (PgeF); test: X-ray crystal structure, […] A; type: binding; settings: soaked into YfiH-C107A crystals; pH 5.4; active-site groove

T2 sequence (P33644 whole entry C107A): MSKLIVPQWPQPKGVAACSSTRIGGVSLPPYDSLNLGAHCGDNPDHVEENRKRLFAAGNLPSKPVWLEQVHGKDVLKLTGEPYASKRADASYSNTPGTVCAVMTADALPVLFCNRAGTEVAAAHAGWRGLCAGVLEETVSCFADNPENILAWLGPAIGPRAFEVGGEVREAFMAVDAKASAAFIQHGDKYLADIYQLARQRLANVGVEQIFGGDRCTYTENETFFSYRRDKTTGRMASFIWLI
T1 sequence (P17952 whole entry): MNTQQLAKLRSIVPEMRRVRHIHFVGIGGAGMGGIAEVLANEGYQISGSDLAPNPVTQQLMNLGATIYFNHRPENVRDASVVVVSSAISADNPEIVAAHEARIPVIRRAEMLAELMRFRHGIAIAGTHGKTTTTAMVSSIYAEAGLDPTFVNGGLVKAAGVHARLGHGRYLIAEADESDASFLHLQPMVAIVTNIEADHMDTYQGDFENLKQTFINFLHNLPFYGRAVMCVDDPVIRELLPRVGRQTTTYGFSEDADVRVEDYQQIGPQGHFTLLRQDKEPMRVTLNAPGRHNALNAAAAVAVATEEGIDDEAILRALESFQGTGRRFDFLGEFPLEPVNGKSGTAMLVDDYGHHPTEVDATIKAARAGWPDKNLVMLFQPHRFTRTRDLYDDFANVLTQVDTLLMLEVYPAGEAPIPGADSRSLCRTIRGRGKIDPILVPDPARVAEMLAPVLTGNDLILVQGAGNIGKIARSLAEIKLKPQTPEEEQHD

NCC(=O)O [Gly, glycine]
ligase reaction, product UDP-MurNAc-Gly by mass spectrometry (MurC): enzymatic synthesis with MurC, using glycine as a substrate

CC(=O)N[C@H]1[C@@H](OP(=O)(O)OP(=O)(O)OC[C@H]2O[C@@H](n3ccc(=O)[nH]c3=O)[C@H](O)[C@@H]2O)O[C@H](CO)[C@@H](O)[C@@H]1O[C@H](C)C(=O)O [UM, UDP-MurNAc]
X-ray crystal structure, 1.47 A (YfiH (PgeF) [1]): This compound was unambiguously identified as UDP-MurNAc based on its high-resolution map

CC(=O)N[C@H]1[C@@H](OP(=O)(O)OP(=O)(O)OC[C@H]2O[C@@H](n3ccc(=O)[nH]c3=O)[C@H](O)[C@@H]2O)O[C@H](CO)[C@@H](O)[C@@H]1O[C@H](C)C(=O)N[C@@H](C)C(=O)O [UMA, UDP–MurNAc–L-Ala]
ligase reaction, product by HPLC and ESI-MS (MurD): we further synthesized UDP–MurNAc–L-Ala–D-Glu (UMAE)

CC(=O)N[C@H]1[C@@H](OP(=O)(O)OP(=O)(O)OC[C@H]2O[C@@H](n3ccc(=O)[nH]c3=O)[C@H](O)[C@@H]2O)O[C@H](CO)[C@@H](O)[C@@H]1O[C@H](C)C(=O)N[C@@H](CO)C(=O)O [UMS, UDP–MurNAc–L-Ser]
ligase reaction, product by HPLC and ESI-MS (MurD): UDP–MurNAc–L-Ser–D-Glu (UMSE) with recombinant MurD | X-ray crystal structure, 1.86 A (YfiH (PgeF) [2]): we obtained the crystals of YfiH bound to UDP–MurNAc–L-Ser
